In ChEMBL document CHEMBL4828726, “Modification of 5-methylphenanthridium from benzothiazoles to indoles as potent FtsZ inhibitors: Broadening the antibacterial spectrum toward vancomycin-resistant enterococci” (Eur J Med Chem, 2021):
In brackets after ≈: the same amount, converted by molar mass.

Legend:
Format in all cases: functional
Streptococcus pyogenes [1] = test: Antibacterial activity against erythromycin-resistant Streptococcus pyogenes assessed as inhibition of bacterial growth measured after 20 hrs by two-fold microdilution assay
Staphylococcus aureus [2] = test: Antibacterial activity against erythromycin-susceptible Staphylococcus aureus ATCC 25923 assessed as inhibition of bacterial growth measured after 20 hrs by two-fold microdilution assay
Bacillus pumilus = test: Antibacterial activity against penicillin-susceptible Bacillus pumilus CMCC63202 assessed as inhibition of bacterial growth measured after 20 hrs by two-fold microdilution assay
Pseudomonas aeruginosa = test: Antibacterial activity against penicillin-susceptible Pseudomonas aeruginosa ATCC 27853 assessed as inhibition of bacterial growth measured after 20 hrs by two-fold microdilution assay
Escherichia coli = test: Antibacterial activity against penicillin-susceptible Escherichia coli ATCC 25922 assessed as inhibition of bacterial growth measured after 20 hrs by two-fold microdilution assay
Bacillus subtilis = test: Antibacterial activity against penicillin-susceptible Bacillus subtilis ATCC 9372 assessed as inhibition of bacterial growth measured after 20 hrs by two-fold microdilution assay
Staphylococcus aureus [3] = test: Antibacterial activity against methicillin-resistant Staphylococcus aureus ATCC43300 assessed as inhibition of bacterial growth measured after 20 hrs by two-fold microdilution assay
Streptococcus pyogenes [4] = test: Antibacterial activity against erythromycin-susceptible Streptococcus pyogenes assessed as inhibition of bacterial growth measured after 20 hrs by two-fold microdilution assay
Staphylococcus aureus [5] = test: Antibacterial activity against penicillin-resistant Staphylococcus aureus ATCC 31007 assessed as inhibition of bacterial growth measured after 20 hrs by two-fold microdilution assay
Staphylococcus aureus [6] = test: Antibacterial activity against clinical isolate Staphylococcus aureus C1 assessed as inhibition of bacterial growth measured after 20 hrs by two-fold microdilution assay
[7] = test system: Staphylococcus epidermidis; test: Antibacterial activity against penicillin-resistant Staphylococcus epidermidis assessed as inhibition of bacterial growth measured after 20 hrs by two-fold microdilution assay
Enterococcus faecium [8] = test: Antibacterial activity against Vancomycin-resistant Enterococcus faecium ATCC 51559 assessed as inhibition of bacterial growth measured after 20 hrs by two-fold microdilution assay
Enterococcus faecalis [9] = test: Antibacterial activity against Vancomycin-susceptible Enterococcus faecalis ATCC 29212 assessed as inhibition of bacterial growth measured after 20 hrs by two-fold microdilution assay
Enterococcus faecalis [10] = test: Antibacterial activity against Vancomycin-resistant Enterococcus faecalis ATCC 51299 assessed as inhibition of bacterial growth measured after 20 hrs by two-fold microdilution assay
Enterococcus faecium [11] = test: Antibacterial activity against Vancomycin-susceptible Enterococcus faecium ATCC 19434 assessed as inhibition of bacterial growth measured after 20 hrs by two-fold microdilution assay

## Cc1ccc2c[n+](C)c3ccc(-c4ccc5ccn(C)c5c4)cc3c2c1.[Cl-]
Streptococcus pyogenes [1]
  MIC: 4 µg/mL
Staphylococcus aureus [2]
  MIC: 4 µg/mL
Bacillus pumilus
  MIC: 16 µg/mL
Pseudomonas aeruginosa
  MIC: > 64 µg/mL
Escherichia coli
  MIC: > 64 µg/mL
Bacillus subtilis
  MIC: 2 µg/mL
Staphylococcus aureus [3]
  MIC: 32 µg/mL
Streptococcus pyogenes [4]
  MIC: 4 µg/mL
Staphylococcus aureus [5]
  MIC: > 64 µg/mL
Staphylococcus aureus [6]
  MIC: 8 µg/mL
[7]
  MIC: > 64 µg/mL

## CCCn1ccc2ccc(-c3ccc4c(c3)c3cc(C)ccc3c[n+]4C)cc21.[Cl-]
Streptococcus pyogenes [1]
  MIC: 32 µg/mL
Staphylococcus aureus [2]
  MIC: 16 µg/mL
Bacillus pumilus
  MIC: > 64 µg/mL
Pseudomonas aeruginosa
  MIC: > 64 µg/mL
Escherichia coli
  MIC: > 64 µg/mL
Bacillus subtilis
  MIC: 64 µg/mL
Staphylococcus aureus [3]
  MIC: 64 µg/mL
Streptococcus pyogenes [4]
  MIC: > 64 µg/mL
Staphylococcus aureus [5]
  MIC: > 64 µg/mL
Staphylococcus aureus [6]
  MIC: 32 µg/mL
[7]
  MIC: > 64 µg/mL

## Cc1ccc2c[n+](C)c3ccc(-c4ccc5ccn(CC(C)C)c5c4)cc3c2c1.[Cl-]
Streptococcus pyogenes [1]
  MIC: 8 µg/mL
Staphylococcus aureus [2]
  MIC: 2 µg/mL
Bacillus pumilus
  MIC: 4 µg/mL
Pseudomonas aeruginosa
  MIC: > 64 µg/mL
Escherichia coli
  MIC: > 64 µg/mL
Bacillus subtilis
  MIC: 4 µg/mL
Staphylococcus aureus [3]
  MIC: 4 µg/mL
Streptococcus pyogenes [4]
  MIC: 4 µg/mL
Staphylococcus aureus [5]
  MIC: 8 µg/mL
Staphylococcus aureus [6]
  MIC: 4 µg/mL
[7]
  MIC: 16 µg/mL

## Cc1cccc2c1c[n+](C)c1ccc(-c3nc4ccccc4s3)cc21.[Cl-]
Streptococcus pyogenes [1]
  MIC: 64 µg/mL
Staphylococcus aureus [2]
  MIC: 16 µg/mL
Bacillus pumilus
  MIC: > 64 µg/mL
Pseudomonas aeruginosa
  MIC: > 64 µg/mL
Escherichia coli
  MIC: > 64 µg/mL
Bacillus subtilis
  MIC: > 64 µg/mL
Staphylococcus aureus [3]
  MIC: > 64 µg/mL
Streptococcus pyogenes [4]
  MIC: 32 µg/mL
Staphylococcus aureus [5]
  MIC: > 64 µg/mL
Staphylococcus aureus [6]
  MIC: > 64 µg/mL
[7]
  MIC: > 64 µg/mL

## Cc1ccc2c(c1)c[n+](C)c1ccc(-c3nc4ccccc4s3)cc21.[Cl-]
Streptococcus pyogenes [1]
  MIC: 16 µg/mL
Staphylococcus aureus [2]
  MIC: 32 µg/mL
Bacillus pumilus
  MIC: 32 µg/mL
Pseudomonas aeruginosa
  MIC: > 64 µg/mL
Escherichia coli
  MIC: > 64 µg/mL
Bacillus subtilis
  MIC: 4 µg/mL
Staphylococcus aureus [3]
  MIC: > 64 µg/mL
Streptococcus pyogenes [4]
  MIC: 16 µg/mL
Staphylococcus aureus [5]
  MIC: > 64 µg/mL
Staphylococcus aureus [6]
  MIC: > 64 µg/mL
[7]
  MIC: > 64 µg/mL

## CCCCCn1ccc2ccc(-c3ccc4c(c3)c3cc(C)ccc3c[n+]4C)cc21.[Cl-]
Streptococcus pyogenes [1]
  MIC: 16 µg/mL
Staphylococcus aureus [2]
  MIC: 2 µg/mL
Bacillus pumilus
  MIC: 8 µg/mL
Pseudomonas aeruginosa
  MIC: > 64 µg/mL
Escherichia coli
  MIC: > 64 µg/mL
Bacillus subtilis
  MIC: 4 µg/mL
Staphylococcus aureus [3]
  MIC: 4 µg/mL
Streptococcus pyogenes [4]
  MIC: 8 µg/mL
Staphylococcus aureus [5]
  MIC: 8 µg/mL
Staphylococcus aureus [6]
  MIC: 4 µg/mL
[7]
  MIC: 8 µg/mL

## CCn1ccc2ccc(-c3ccc4c(c3)c3c(C)cccc3c[n+]4C)cc21.[Cl-]
Streptococcus pyogenes [1]
  MIC: 8 µg/mL
Staphylococcus aureus [2]
  MIC: 2 µg/mL
Bacillus pumilus
  MIC: 16 µg/mL
Pseudomonas aeruginosa
  MIC: > 64 µg/mL
Escherichia coli
  MIC: > 64 µg/mL
Bacillus subtilis
  MIC: 4 µg/mL
Staphylococcus aureus [3]
  MIC: 8 µg/mL
Streptococcus pyogenes [4]
  MIC: 8 µg/mL
Staphylococcus aureus [5]
  MIC: 32 µg/mL
Staphylococcus aureus [6]
  MIC: 8 µg/mL
[7]
  MIC: 16 µg/mL

## CN[C@H](CC(C)C)C(=O)N[C@H]1C(=O)N[C@@H](CC(N)=O)C(=O)N[C@H]2C(=O)N[C@H]3C(=O)N[C@H](C(=O)N[C@H](C(=O)O)c4cc(O)cc(O)c4-c4cc3ccc4O)[C@H](O)c3ccc(c(Cl)c3)Oc3cc2cc(c3O[C@@H]2O[C@H](CO)[C@@H](O)[C@H](O)[C@H]2O[C@H]2C[C@](C)(N)[C@H](O)[C@H](C)O2)Oc2ccc(cc2Cl)[C@H]1O [VANCOMYCIN]
Enterococcus faecium [8]
  MIC: > 64 µg/mL
Enterococcus faecalis [9]
  MIC: 2 µg/mL (≈ 1.38 µM)
Enterococcus faecalis [10]
  MIC: > 64 µg/mL

## Cc1cccc2c[n+](C)c3ccc(-c4ccc5ccn(Cc6ccc(C(F)(F)F)cc6)c5c4)cc3c12.[Cl-]
Streptococcus pyogenes [1]
  MIC: 16 µg/mL
Enterococcus faecium [8]
  MIC: 8 µg/mL
Staphylococcus aureus [2]
  MIC: 2 µg/mL
Bacillus pumilus
  MIC: 4 µg/mL
Pseudomonas aeruginosa
  MIC: > 64 µg/mL
Escherichia coli
  MIC: > 64 µg/mL
Enterococcus faecalis [9]
  MIC: 16 µg/mL
Bacillus subtilis
  MIC: 2 µg/mL
Enterococcus faecalis [10]
  MIC: 8 µg/mL
Staphylococcus aureus [3]
  MIC: 8 µg/mL
Streptococcus pyogenes [4]
  MIC: 16 µg/mL
Staphylococcus aureus [5]
  MIC: 8 µg/mL
Staphylococcus aureus [6]
  MIC: 8 µg/mL
Enterococcus faecium [11]
  MIC: 8 µg/mL
[7]
  MIC: 4 µg/mL

## CCCCCn1ccc2ccc(-c3ccc4c(c3)c3c(C)cccc3c[n+]4C)cc21.[Cl-]
Streptococcus pyogenes [1]
  MIC: 16 µg/mL
Staphylococcus aureus [2]
  MIC: 2 µg/mL
Bacillus pumilus
  MIC: 4 µg/mL
Pseudomonas aeruginosa
  MIC: > 64 µg/mL
Escherichia coli
  MIC: > 64 µg/mL
Bacillus subtilis
  MIC: 2 µg/mL
Staphylococcus aureus [3]
  MIC: 2 µg/mL
Streptococcus pyogenes [4]
  MIC: 16 µg/mL
Staphylococcus aureus [5]
  MIC: 4 µg/mL
Staphylococcus aureus [6]
  MIC: 2 µg/mL
[7]
  MIC: 8 µg/mL

## COc1ccc2cc3[n+](cc2c1OC)CCc1cc2c(cc1-3)OCO2 [BERBERINE]
Streptococcus pyogenes [1]
  MIC: 64 µg/mL
Enterococcus faecium [8]
  MIC: > 64 µg/mL
Staphylococcus aureus [2]
  MIC: 64 µg/mL
Bacillus pumilus
  MIC: > 64 µg/mL
Pseudomonas aeruginosa
  MIC: > 64 µg/mL
Escherichia coli
  MIC: > 64 µg/mL
Enterococcus faecalis [9]
  MIC: > 64 µg/mL
Bacillus subtilis
  MIC: > 64 µg/mL
Enterococcus faecalis [10]
  MIC: > 64 µg/mL
Staphylococcus aureus [3]
  MIC: > 64 µg/mL
Streptococcus pyogenes [4]
  MIC: 64 µg/mL
Staphylococcus aureus [5]
  MIC: > 64 µg/mL
Staphylococcus aureus [6]
  MIC: > 64 µg/mL
Enterococcus faecium [11]
  MIC: > 64 µg/mL
[7]
  MIC: > 64 µg/mL
